Measurements from PubChem BioAssay AID1963961 (Molecular Pharmacology Branch, DTP, NCI, 2024).

Tested on: K98450-129-R-PDC multicell spheroids, viability
Test: Anticancer human tumor K98450-129-R-PDC patient-derived colon adenocarcinoma cell line growth inhibition [PI3K]
Conditions: for IC50: curve of first compound; for viability, T/C: stronger effect = lower value
Procedure, shortened: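 Multi-cell spheroids combine tumor cells with HUVEC and human MSCs, treated with targeted agents alone or with inavolisib, alpelisib, duvelisib or copanlisib. Concentrations fall in half-log steps from at or near clinical Cmax, or from 10 microM where Cmax is unknown; viability read-out.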

[1] = second compound 0.00316 µM, first compound 0.0316 µM
[2] = second compound 0.00316 µM, first compound 0.1 µM
[3] = second compound 0.00316 µM, first compound 0.316 µM
[4] = second compound 0.00316 µM, first compound 1 µM
[5] = second compound 0.00316 µM, first compound 3.16 µM
[6] = second compound 0.00316 µM, first compound 10 µM
[7] = second compound 0.01 µM, first compound 0.0316 µM
[8] = second compound 0.01 µM, first compound 0.1 µM
[9] = second compound 0.01 µM, first compound 0.316 µM
[10] = second compound 0.01 µM, first compound 1 µM
[11] = second compound 0.01 µM, first compound 3.16 µM
[12] = second compound 0.01 µM, first compound 10 µM
[13] = second compound 0.0316 µM, first compound 0.0316 µM
[14] = second compound 0.0316 µM, first compound 0.1 µM
[15] = second compound 0.0316 µM, first compound 0.316 µM
[16] = second compound 0.0316 µM, first compound 1 µM
[17] = second compound 0.0316 µM, first compound 3.16 µM
[18] = second compound 0.0316 µM, first compound 10 µM
[19] = second compound 0.1 µM, first compound 0.0316 µM
[20] = second compound 0.1 µM, first compound 0.1 µM
[21] = second compound 0.1 µM, first compound 0.316 µM
[22] = second compound 0.1 µM, first compound 1 µM
[23] = second compound 0.1 µM, first compound 3.16 µM
[24] = second compound 0.1 µM, first compound 10 µM
[25] = second compound 0.316 µM, first compound 0.0316 µM
[26] = second compound 0.316 µM, first compound 0.1 µM
[27] = second compound 0.316 µM, first compound 0.316 µM
[28] = second compound 0.316 µM, first compound 1 µM
[29] = second compound 0.316 µM, first compound 3.16 µM
[30] = second compound 0.316 µM, first compound 10 µM
[31] = second compound 1 µM, first compound 0.0316 µM
[32] = second compound 1 µM, first compound 0.1 µM
[33] = second compound 1 µM, first compound 0.316 µM
[34] = second compound 1 µM, first compound 1 µM
[35] = second compound 1 µM, first compound 3.16 µM
[36] = second compound 1 µM, first compound 10 µM
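Also: spheroids exposed to agents for seven days before read-out.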

C#Cc1c(F)ccc2cc(O)cc(-c3ncc4c(N5CC6CCC(C5)N6)nc(OCC56CCCN5CC(F)C6)nc4c3F)c12 (stereo not drawn) + COc1c(OCCCN2CCOCC2)ccc2c3n(c(=NC(=O)c4cnc(N)nc4)nc12)CCN3
IC50 (second compound 0.00316 µM): > 10 µM | IC50 (second compound 0.01 µM): > 10 µM | IC50 (second compound 0.0316 µM): > 10 µM | IC50 (second compound 0.1 µM): > 10 µM | IC50 (second compound 0.316 µM): > 10 µM | IC50 (second compound 1 µM): 2.44 µM | viability, T/C [1]: 114% | viability, T/C [2]: 108% | viability, T/C [3]: 110% | viability, T/C [4]: 90% | viability, T/C [5]: 89.1% | viability, T/C [6]: 81.7% | viability, T/C [7]: 122% | viability, T/C [8]: 113% | viability, T/C [9]: 99.9% | viability, T/C [10]: 101% | viability, T/C [11]: 100% | viability, T/C [12]: 79.5% | viability, T/C [13]: 91.6% | viability, T/C [14]: 101% | viability, T/C [15]: 76% | viability, T/C [16]: 81.7% | viability, T/C [17]: 85.6% | viability, T/C [18]: 74.3% | viability, T/C [19]: 64% | viability, T/C [20]: 65.7% | viability, T/C [21]: 80.8% | viability, T/C [22]: 71% | viability, T/C [23]: 75.8% | viability, T/C [24]: 64.3% | viability, T/C [25]: 60.8% | viability, T/C [26]: 58% | viability, T/C [27]: 67.3% | viability, T/C [28]: 62.6% | viability, T/C [29]: 49.1% | viability, T/C [30]: 47.9% | viability, T/C [31]: 54.6% | viability, T/C [32]: 66% | viability, T/C [33]: 53.9% | viability, T/C [34]: 51.2% | viability, T/C [35]: 50.9% | viability, T/C [36]: 25.8%

C=CC(=O)N1CCN(c2nc(=O)n(-c3c(C)ccnc3C(C)C)c3nc(-c4c(O)cccc4F)c(F)cc23)C(C)C1 (stereo not drawn) + COc1c(OCCCN2CCOCC2)ccc2c3n(c(=NC(=O)c4cnc(N)nc4)nc12)CCN3
IC50 (second compound 0.00316 µM): 2.76 µM | IC50 (second compound 0.01 µM): 5 µM | IC50 (second compound 0.0316 µM): 2.95 µM | IC50 (second compound 0.1 µM): 0.692 µM | IC50 (second compound 0.316 µM): 0.554 µM | IC50 (second compound 1 µM): 0.166 µM | viability, T/C [1]: 98.1% | viability, T/C [2]: 95.5% | viability, T/C [3]: 97.4% | viability, T/C [4]: 82.1% | viability, T/C [5]: 45.7% | viability, T/C [6]: 44.7% | viability, T/C [7]: 103% | viability, T/C [8]: 82.8% | viability, T/C [9]: 89.3% | viability, T/C [10]: 63% | viability, T/C [11]: 57.1% | viability, T/C [12]: 41.4% | viability, T/C [13]: 116% | viability, T/C [14]: 99.6% | viability, T/C [15]: 73.8% | viability, T/C [16]: 76.2% | viability, T/C [17]: 48.6% | viability, T/C [18]: 29.4% | viability, T/C [19]: 71.9% | viability, T/C [20]: 91.2% | viability, T/C [21]: 61.1% | viability, T/C [22]: 44.9% | viability, T/C [23]: 41.9% | viability, T/C [24]: 28.3% | viability, T/C [25]: 67.7% | viability, T/C [26]: 59.5% | viability, T/C [27]: 66% | viability, T/C [28]: 34.8% | viability, T/C [29]: 19.5% | viability, T/C [30]: 16.3% | viability, T/C [31]: 50.8% | viability, T/C [32]: 61.1% | viability, T/C [33]: 42.2% | viability, T/C [34]: 22.6% | viability, T/C [35]: 15.1% | viability, T/C [36]: 14.2%

CC(Cn1ccc(-c2ccc(C#N)c(Cl)c2)n1)NC(=O)c1cc(C(C)O)[nH]n1 (stereo not drawn) + COc1c(OCCCN2CCOCC2)ccc2c3n(c(=NC(=O)c4cnc(N)nc4)nc12)CCN3
IC50 (second compound 0.00316 µM): > 10 µM | IC50 (second compound 0.01 µM): > 10 µM | IC50 (second compound 0.0316 µM): > 10 µM | IC50 (second compound 0.1 µM): > 10 µM | IC50 (second compound 0.316 µM): > 10 µM | IC50 (second compound 1 µM): 4.9 µM | viability, T/C [1]: 102% | viability, T/C [2]: 97.7% | viability, T/C [3]: 117% | viability, T/C [4]: 104% | viability, T/C [5]: 107% | viability, T/C [6]: 111% | viability, T/C [7]: 116% | viability, T/C [8]: 95% | viability, T/C [9]: 105% | viability, T/C [10]: 102% | viability, T/C [11]: 90.7% | viability, T/C [12]: 89.5% | viability, T/C [13]: 88.9% | viability, T/C [14]: 92.9% | viability, T/C [15]: 80.5% | viability, T/C [16]: 89.6% | viability, T/C [17]: 93.1% | viability, T/C [18]: 75.8% | viability, T/C [19]: 74.9% | viability, T/C [20]: 79% | viability, T/C [21]: 82.1% | viability, T/C [22]: 95.2% | viability, T/C [23]: 90% | viability, T/C [24]: 71.1% | viability, T/C [25]: 47.2% | viability, T/C [26]: 59.4% | viability, T/C [27]: 64.2% | viability, T/C [28]: 62.1% | viability, T/C [29]: 72.1% | viability, T/C [30]: 43.6% | viability, T/C [31]: 48.5% | viability, T/C [32]: 59.8% | viability, T/C [33]: 63.2% | viability, T/C [34]: 52.1% | viability, T/C [35]: 54.2% | viability, T/C [36]: 44%

CC1(C)CCC(Nc2ncc(C(F)(F)F)c(-c3c[nH]c4c(P(C)(C)=O)c(C#N)ccc34)n2)CN1 (stereo not drawn) + COc1c(OCCCN2CCOCC2)ccc2c3n(c(=NC(=O)c4cnc(N)nc4)nc12)CCN3
IC50 (second compound 0.00316 µM): > 10 µM | IC50 (second compound 0.01 µM): > 10 µM | IC50 (second compound 0.0316 µM): 6.6 µM | IC50 (second compound 0.1 µM): 9.23 µM | IC50 (second compound 0.316 µM): 4.72 µM | IC50 (second compound 1 µM): 0.0316 µM | viability, T/C [1]: 104% | viability, T/C [2]: 99.5% | viability, T/C [3]: 66.3% | viability, T/C [4]: 60.1% | viability, T/C [5]: 60.3% | viability, T/C [6]: 52.9% | viability, T/C [7]: 113% | viability, T/C [8]: 103% | viability, T/C [9]: 67.3% | viability, T/C [10]: 61.6% | viability, T/C [11]: 67.3% | viability, T/C [12]: 48.8% | viability, T/C [13]: 94.6% | viability, T/C [14]: 77.5% | viability, T/C [15]: 68.5% | viability, T/C [16]: 69.4% | viability, T/C [17]: 61.6% | viability, T/C [18]: 42.7% | viability, T/C [19]: 79.6% | viability, T/C [20]: 86.6% | viability, T/C [21]: 63.7% | viability, T/C [22]: 69% | viability, T/C [23]: 68.7% | viability, T/C [24]: 46.1% | viability, T/C [25]: 58.3% | viability, T/C [26]: 64% | viability, T/C [27]: 59% | viability, T/C [28]: 54.7% | viability, T/C [29]: 57.8% | viability, T/C [30]: 37.3% | viability, T/C [31]: 51.6% | viability, T/C [32]: 48.9% | viability, T/C [33]: 48.8% | viability, T/C [34]: 42.7% | viability, T/C [35]: 50.7% | viability, T/C [36]: 27.2%
